Test results from patent publication EP2999467B1, “USE OF A COMBINATION OF TWO COMPOUNDS FOR THE TREATMENT AND/OR PREVENTION OF BONE DISORDERS” (Institut National de la Recherche Agronomique (INRA), priority 2013, dated 2014).
Where two headings read alike, the source gives them in different places.

Columns and labels:
[1] = system: préostéoblastes primaires; assay: ALP activity measurement in differentiating osteoblasts; assay type: cell-based, rats Wistar; details: Rattus norvegicus, Osteoblast, read-out: activité ALP par rapport à la condition « AA+βGP seuls »
Excerpt: (§1) Les préostéoblastes primaires ont été isolés à partir de la calotte crânienne de rats Wistar nouveaux-nés par digestion enzymatique comme précédemment décrit [Declercq, H., Van den Vreken, N., De Maeyer, E., Verbeeck, R., Schacht, E., De Ridder, L., and Cornelissen, M. (2004). Isolation, proliferation and differentiation of osteoblastic cells to study cell/biomaterial interactions: comparison of different isolation techniques and source. Biomaterials 25, 757-68.]. Les précurseurs d'ostéoclastes RAW264.7 ont été obtenus auprès de l'ATCC (Manassas, VA, USA). Les préostéoblastes et les RAW264.7 ont été cultivés dans du milieu α-MEM (Invitrogen, Carlsbad, CA, USA) supplémenté avec 10% de SVF décomplémenté et de 100 unités/ml de pénicilline-streptomycine.
Les préostéoblastes primaires ont été ensemencés à 3500 cellules par puits dans des plaques 96 puits traitées au collagène. Trente-six heures plus tard, les cellules ont été prétraitées avec du DMSO comme témoin ou de la fisétine (1 à 5 µM) pendant 12 heures, puis induites à se différentier avec 25 µg/ml d'acide ascorbique et 5 mM de bêta-glycérophosphate en présence de DMSO ou de fisétine (1 à 5 µM). L'activité enzymatique ALP a été mesurée en cinétique après 0, 5, 7 et 12 jours de traitement avec un changement de milieux tous les 2 jours. Les cellules ont été lysées par des cycles de gel-dégel et les lysats ont subi une homogénéisation dans 200 µl de tampon chlorure de magnésium hexahydrate, di-éthanoamine à un pH de 9,8. Les lysats cellulaires (10 µl) ont été ajoutés à 200 µl de solution de p-nitrophényl phosphate (16,2 mM) et l'absorbance a été mesurée en utilisant un lecteur de microplaques à 405 nm toutes les 90 seconds pendant 30min. Pour chaque échantillon, la concentration de protéines a été analysée pour exprimer les résultats sous forme de µmol de p-nitrophenol/heure/mg de protéines.

[2] = system: phosphatase alcaline; assay: Quantitative RT-PCR, osteoblast differentiation marker: alkaline phosphatase; assay type: cell-based, rats Wistar; details: Rattus norvegicus; for activation at 5 µM: AA+βGP+Fisétine 5µM
Excerpt: as §1
(§2) L'extraction des ARN totaux (cellules et fémurs) a été effectuée en utilisant le réactif TRIzol, la transcription inverse (RT) a été réalisée à l'aide du kit de synthèse d'ADNc Dynamo (Thermo Scientific, Waltham, MA, USA) et l'analyse PCR en temps réel a été réalisée avec le Mastercycler ep Realplex2 (Eppendorf, Hambourg, Allemagne). Toutes les valeurs ont été normalisées par la GAPDH. Les séquences des oligos utilisés sont : ALP F 5'-GGCCAGCTACACCACAACA-3' / ALP R 5'-[…] -3' / OCN F 5'-AGACTCCGGCGCTACCTT -3' / OCN R 5'-[…]-3'/ COL1 F 5'-[…]-3' / COL1 R 5'-[…]-3' / GAPDH F 5'-[…]-3' / GAPDH R 5'-[…]-3'

[3] = system: collagène de type 1; assay: Quantitative RT-PCR, osteoblast differentiation marker: type 1 collagen; assay type: cell-based, rats Wistar; details: Rattus norvegicus; for activation at 5 µM: AA+βGP+Fisétine 5µM
Excerpt: as §1, §2

[4] = system: ostéocalcine sérique; assay: Ovariectomy-induced bone loss: serum osteocalcin (ELISA); assay type: in vivo, souris C57BL/6J; details: daily Fisétine 25mg/kg by gavage
Method: Tout au long de l'étude, les animaux ont été logés dans un environnement contrôlé (12:12 h cycle lumière-obscurité, 20-22 ° C, 50-60% d'humidité relative, 1 souris par cage en plastique avec un accès libre à l'eau. Les souris C57BL/6J ont été livrées 2 semaines avant l'étude pour l'acclimatation à notre environnement sous régime standard semi-purifié. Pour toutes les expériences, les souris de 8 semaines (n=12/groupe) ont été gavées avec le véhicule (1% d'éthanol, 0,2% hydroxypropylcellulose dans de l'eau distillée) ou avec la fisétine (5 à 50 mg/kg dans le véhicule) pendant une semaine. Ensuite, pour l'expérience OVX, les souris ont été pseudo-opérées ou ovariectomisées bilatéralement et ont reçu quotidiennement par gavage le véhicule ou la fisétine pendant 4 semaines. A la fin de l'expérimentation, le sérum, les cornes utérines, les tibias et les fémurs ont été recueillis pour analyse. Pour l'expérience de perte osseuse induite par LPS, le véhicule (PBS) ou le LPS (sérotype 026: B6, 25mg/kg) ont été injectés par voie sous-cutanée au niveau de la calotte crânienne, une fois par semaine pendant 3 semaines sous anesthésie. Durant ces 3 semaines, les souris ont reçu soit le véhicule (1% d'éthanol, 0,2% hydroxypropylcellulose dans de l'eau distillée) soit la fisétine quotidiennement par gavage. […]

O=c1c(O)c(-c2ccc(O)c(O)c2)oc2cc(O)ccc12 [Fisétine, 3,3',4',7-tétrahydroxyflavone]
activation at 1 µM ([1]; AA+βGP+Fisétine 1 µM): 32%
activation at 5 µM ([1]; AA+βGP+Fisétine 5µM): 87%
activation at 2.5 µM ([1]; AA+βGP+Fisétine 2,5µM): 63%
activation at 1 µM ([2]; 168 h, AA+βGP+Fisétine 1 µM, J7, read-out: expression de la phosphatase alcaline par rapport à la condition « AA+βGP seuls »): 84%
activation at 5 µM ([2]; 168 h, J7, read-out: expression de la phosphatase alcaline par rapport à la condition « AA+βGP seuls »): 146%
activation at 1 µM ([2]; 336 h, AA+βGP+Fisétine 1µM, J14, read-out: expression de la phosphatase alcaline par rapport à la condition « AA+βGP seuls »): 37%
activation at 5 µM ([2]; 336 h, J14, read-out: expression de la phosphatase alcaline par rapport à la condition « AA+βGP seuls »): 88%
activation at 1 µM ([3]; 168 h, AA+βGP+Fisétine 1 µM, J7, read-out: expression du collagène de type 1 par rapport à la condition « AA+βGP seuls »): 34%
activation at 5 µM ([3]; 168 h, J7, read-out: expression du collagène de type 1 par rapport à la condition « AA+βGP seuls »): 80%
activation at 1 µM ([3]; 336 h, AA+βGP+Fisétine 1µM, J14, read-out: expression du collagène de type 1 par rapport à la condition « AA+βGP seuls »): 60%
activation at 5 µM ([3]; 336 h, J14, read-out: expression du collagène de type 1 par rapport à la condition « AA+βGP seuls »): 138%
taux sérique d'ostéocalcine par rapport à la condition témoin « SH » [4]: +61%
